These results are taken from patent publication US20260274861A1, “FUSED RING COMPOUND, PREPARATION METHOD THEREFOR AND MEDICINAL APPLICATION THEREOF” (JIANGSU HENGRUI PHARMACEUTICALS CO., LTD., priority 2022, published 2026).

Holding throughout (type): cell-based
One experiment concerns GP2d cells. In words: Inhibition of 3D proliferation of GP2d cells (CellTiter-Glo 3D). The conditions noted are these: 120 h, 5 days. The method, then: (§1) The inhibitory effects of the compounds of the present disclosure on the KRAS target were evaluated by assessing the inhibitory effects of the compounds of the present disclosure on the 3D proliferation of GP2d and AGS cells.
GP2d cells were cultured in a complete culture medium, namely a DMEM/high glucose culture medium (Hyclone, SH30243.01) containing 10% fetal bovine serum (Corning, 35-076-CV). On the first day of the experiment, the GP2d cells were seeded into a 96-well low-adsorption plate (Corning, CLS7007-24EA) with a complete culture medium at a density of 1000 cells/well, with each well containing 90 μL of a cell suspension. The plate was centrifuged at 2000 rpm for 5 min at room temperature and then incubated overnight in a 37° C., 5% CO2 cell incubator.
(§2) The next day, the test compounds, serially diluted in a complete culture medium, were added at 10 μL/well. The final concentrations of the compounds for GP2d cells were 9 concentration points obtained by 5-fold serial dilution from 1 μM, and the final concentrations of the compounds for AGS cells were 9 concentration points obtained by 5-fold serial dilution from […]. A blank control containing 0.5% DMSO was set for both types of cells. The plates were incubated in a 37° C., 5% CO2 cell incubator for 5 days. On the seventh day, the 96-well cell culture plates were taken out, and 50 μL of the CellTiter-Glo® 3D Cell Viability Assay reagent (Promega, G^9682) was added to each well. The plates were shaken at room temperature in the dark for 25 min. The contents in the wells were pipetted for good uniformity, and 100 μL of the mixture was transferred from each well to a white impermeable 96-well plate (PerkinElmer, 6005290). The luminescence signal values were obtained using a multi-mode microplate reader (PerkinElmer, EnVision2105).
Background: ATP-based viability assays read luminescence as a measure of living cells.

For another experiment, the system named is AGS cells. The experiment in a line: Inhibition of 3D proliferation of AGS cells (CellTiter-Glo 3D). The conditions noted are these: Homo sapiens, 120 h, 5 days. The method, then: as §1
AGS cells were cultured in a complete culture medium, namely an RPM11640 medium (Hyclone, SH30809.01) containing 10% fetal bovine serum (Corning, 35-076-CV). On the first day of the experiment, the AGS cells were seeded into a 96-well low-adsorption plate (Corning, CLS7007-24EA) with a complete culture medium at a density of 1000 cells/well, with each well containing 90 μL of a cell suspension. The plate was centrifuged at 2000 rpm for 5 min at room temperature and then incubated overnight in a 37° C., 5% CO2 cell incubator.
as §2

For another experiment, the system named is AsPC-1 cells. The experiment in a line: Inhibition of 3D proliferation of AsPC-1 cells (CellTiter-Glo 3D). The conditions noted are these: Homo sapiens, ASPC1, 120 h, 5 days. The method, then:
On the first day of the experiment, well-grown AsPC-1 cells with 70%-80% confluency were digested and resuspended in an RPMI 1640 culture medium (Hyclone, SH30809.01) containing 10% FBS, and the cell density was adjusted to the desired level. The cell suspension was added to a U-shaped low-adsorption 96-well plate (Corning, CLS7007-24EA) at 90 μL/well, with a cell density of 1500 cells/well. The cell plate was centrifuged at 2500 rpm for 5 min and then incubated overnight in a 37° C., 5% CO2 incubator. The next day, 20 mM test compounds dissolved in DMSO were diluted to an initial concentration of 2 mM and then serially diluted 5-fold, and a total of 9 concentration points were obtained. Control wells were set using DMSO. The serially diluted compounds were then further diluted 20-fold with a culture medium. The test compounds, diluted with the culture medium, were added to the cell plate at 10 μL/well, with the final concentrations of the compounds being 9 concentration points obtained by 5-fold serial dilution from an initial concentration of 10 μM. Cell wells containing 0.5% DMSO were set as vehicle control wells, and wells containing only the culture medium and 0.5% DMSO were set as blank control wells. A duplicate well was set for each concentration of the compounds and the control wells, with the final concentration of DMSO in each well being 0.5%. The cell plate was centrifuged at 2500 rpm for 3 min and then incubated in a 37° C., 5% CO2 incubator for 5 days. On the seventh day, the 96-well cell culture plate was taken out, and 50 μL of the CellTiter-Glo® Luminescent 3D Cell Viability Assay reagent (Promega, G^9683) was added to each well. The plates were shaken at room temperature in the dark for 25 min. The contents in the wells were pipetted up and down for good uniformity, and then 100 μL of the mixture was transferred from each well to a white impermeable OptiPlate™-96-well plate (PerkinElmer, 6005290). The luminescence signal values were obtained using a multi-mode microplate reader (PerkinElmer, EnVision2105).
The inhibition rate was calculated using the formula: inhibition rate=(luminescence valuevehicle control well−luminescence valuetest compound)/(luminescence valuevehicle control well−luminescence valueblank control well)×100%. Curves were plotted using GraphPad Prism software based on the various concentrations of the compounds and the corresponding inhibition rates, and IC50 values for the compounds were calculated.

Molecules are shown by their SMILES.

Broadly, the IC50 is the concentration needed to halve the response being measured. Low values mean greater potency in that assay, high ones weaker potency in that assay. In turn, `Cc1cc(N)c(F)c(-c2nc3c4c(nc(OCC5(CN6CCC(=C(F)F)CC6)CC5)nc4c2F)N2C[C@H]4CC[C@H](N4)[C@H]2[C@H](C)O3)c1C(F)(F)F` [Example 40, 3-((5S,5aS,6S,9R)-12-((1-((4-(Difluoromethylene)piperidin-1-yl)methyl)cyclopropyl)methoxy)-1-fluoro-5-methyl-5a,6,7,8,9,10-hexahydro-5H-4-oxa-3,10a,11,13,14-pentaaza-6,9-methanonaphtho[1,8-ab]heptalen-2-yl)-2-fluoro-5-methyl-4-(trifluoromethyl)aniline] returned an IC50 in the experiment with GP2d cells of 0.6 nM.

For the compound `Cc1nc(N)cc(-c2nc3c4c(nc(OCC5(CN6CCC(=CF)CC6)CC5)nc4c2F)N2C[C@H]4CC[C@H](N4)[C@H]2[C@H](C)O3)c1C(F)(F)F` [Example 42, 4-((5S,5aS,6S,9R)-1-Fluoro-12-((1-((4-(fluoromethylene)piperidin-1-yl)methyl)cyclopropyl)methoxy)-5-methyl-5a,6,7,8,9,10-hexahydro-5H-4-oxa-3,10a,11,13,14-pentaaza-6,9-methanonaphtho[1,8-ab]heptalen-2-yl)-6-methyl-5-(trifluoromethyl)pyridin-2-amine], the figures for the IC50 with AGS cells, with AsPC-1 cells and in the experiment on GP2d cells were 5.2 nM, 1.8 nM and 0.21 nM, respectively.

For the compound `CCc1c(F)ccc2cc(O)cc(-c3nc4c5c(nc(OCC6(CN7CC/C(=C\F)C7)CC6)nc5c3F)N3C[C@H]5CC[C@H](N5)[C@H]3[C@H](C)O4)c12` [Example 11, 5-Ethyl-6-fluoro-4-((5S,5aS,6S,9R)-1-fluoro-12-((1-(((E)-3-(fluoromethylene)pyrrolidin-1-yl)methyl)cyclopropyl)methoxy)-5-methyl-5a,6,7,8,9,10-hexahydro-5H-4-oxa-3,10a,11,13,14-pentaaza-6,9-methanonaphtho[1,8-ab]heptalen-2-yl)naphthalen-2-ol], half-maximal inhibition with GP2d cells (IC50) required 0.7 nM. This lies in the sub-nanomolar range.

Consider `C[C@@H]1Oc2nc(-c3ccc(F)c4sc(N)c(C#N)c34)c(F)c3nc(OCC4(CN5CCC(=C(F)F)CC5)CC4)nc(c23)N2C[C@H]3CC[C@H](N3)[C@@H]12` [Example 41, 2-Amino-4-((5S,5aS,6S,9R)-12-((1-((4-(difluoromethylene)piperidin-1-yl)methyl)cyclopropyl)methoxy)-1-fluoro-5-methyl-5a,6,7,8,9,10-hexahydro-5H-4-oxa-3,10a,11,13,14-pentaaza-6,9-methanonaphtho[1,8-ab]heptalen-2-yl)-7-fluorobenzo[b]thiophene-3-carbonitrile], for which the IC50 with AsPC-1 cells was 3.7 nM; with GP2d cells, 0.4 nM.

As for `Cc1cc(N)c(F)c(-c2nc3c4c(nc(OCC5(CN6CCC(=CF)CC6)CC5)nc4c2F)N2C[C@H]4CC[C@H](N4)[C@H]2[C@H](C)O3)c1C(F)(F)F` [Example 38, 2-Fluoro-3-((5S,5aS,6S,9R)-1-fluoro-12-((1-((4-(fluoromethylene)piperidin-1-yl)methyl)cyclopropyl)methoxy)-5-methyl-5a,6,7,8,9,10-hexahydro-5H-4-oxa-3,10a,11,13,14-pentaaza-6,9-methanonaphtho[1,8-ab]heptalen-2-yl)-5-methyl-4-(trifluoromethyl)aniline], the figures for the half-inhibitory concentration (IC50) in the experiment with AGS cells, with AsPC-1 cells and in the experiment with GP2d cells were 5 nM, 1.7 nM and 0.07 nM, respectively.

Turning to `CCc1c(F)ccc2cc(O)cc(-c3nc4c5c(nc(OCC6(CN7CCOCC7)CC6)nc5c3F)N3C[C@H]5CC[C@H](N5)[C@H]3[C@H](C)O4)c12` [Example 5, 5-Ethyl-6-fluoro-4-((5S,5aS,6S,9R)-1-fluoro-5-methyl-12-((1-(morpholinomethyl)cyclopropyl)methoxy)-5a,6,7,8,9,10-hexahydro-5H-4-oxa-3,10a,11,13,14-pentaaza-6,9-methanonaphtho[1,8-ab]heptalen-2-yl)naphthalen-2-ol], the IC50 in the experiment with AGS cells turned out to be 8.7 nM; in the experiment with AsPC-1 cells it was 5.7 nM; in the experiment on GP2d cells, 0.9 nM.

Regarding `CCc1c(F)ccc2cc(O)cc(-c3nc4c5c(nc(OCC6(CN7CCC(=CF)CC7)CC6)nc5c3F)N3C[C@H]5CC[C@H](N5)[C@H]3[C@H](C)O4)c12` [Example 23, 5-Ethyl-6-fluoro-4-((5S,5aS,6S,9R)-1-fluoro-12-((1-((4-(fluoromethylene)piperidin-1-yl)methyl)cyclopropyl)methoxy)-5-methyl-5a,6,7,8,9,10-hexahydro-5H-4-oxa-3,10a,11,13,14-pentaaza-6,9-methanonaphtho[1,8-ab]heptalen-2-yl)naphthalen-2-ol], the half-inhibitory concentration (IC50) in the experiment on AsPC-1 cells came out at 7.9 nM; in the experiment on GP2d cells it was 0.2 nM.

In the case of `C=C1CN2CC(=C)CC2(COc2nc3c4c(nc(-c5cc(O)cc6ccc(F)c(CC)c56)c(F)c4n2)O[C@@H](C)[C@@H]2[C@@H]4CC[C@H](CN32)N4)C1` [Example 17, 4-((5S,5aS,6S,9R)-12-((2,6-Dimethylenetetrahydro-1H-pyrrolizin-7a(5H)-yl)methoxy)-1-fluoro-5-methyl-5a,6,7,8,9,10-hexahydro-5H-4-oxa-3,10a,11,13,14-pentaaza-6,9-methanonaphtho[1,8-ab]heptalen-2-yl)-5-ethyl-6-fluoronaphthalen-2-ol], the IC50 with GP2d cells turned out to be 0.9 nM.

In the experiment on GP2d cells, `CCc1c(F)ccc2cc(O)cc(-c3nc4c5c(nc(OCC67CCCN6CC(=C(F)F)C7)nc5c3F)N3C[C@H]5CC[C@H](N5)[C@H]3[C@H](C)O4)c12` (stereo partly drawn) [Example 18, 4-((5S,5aS,6S,9R)-12-((2-(Difluoromethylene)tetrahydro-1H-pyrrolizin-7a(5H)-yl)methoxy)-1-fluoro-5-methyl-5a,6,7,8,9,10-hexahydro-5H-4-oxa-3,10a,11,13,14-pentaaza-6,9-methanonaphtho[1,8-ab]heptalen-2-yl)-5-ethyl-6-fluoronaphthalen-2-ol] displayed an IC50 of 1.2 nM.

For `C[C@@H]1Oc2nc(-c3cc(N)cc(Cl)c3C(F)(F)F)c(F)c3nc(OCC4(CN5CCC(=CF)CC5)CC4)nc(c23)N2C[C@H]3CC[C@H](N3)[C@@H]12` [Example 36, 3-Chloro-5-((5S,5aS,6S,9R)-1-fluoro-12-((1-((4-(fluoromethylene)piperidin-1-yl)methyl)cyclopropyl)methoxy)-5-methyl-5a,6,7,8,9,10-hexahydro-5H-4-oxa-3,10a,11,13,14-pentaaza-6,9-methanonaphtho[1,8-ab]heptalen-2-yl)-4-(trifluoromethyl)aniline], the figures for the IC50 in the experiment on AGS cells, with AsPC-1 cells and with GP2d cells were 0.9 nM, 0.2 nM and 0.06 nM, respectively.

Take `CCc1c(F)ccc2cc(O)cc(-c3nc4c5c(nc(OCC6(CN7CC8CC(=C(F)F)CC8C7)CC6)nc5c3F)N3C[C@H]5CC[C@H](N5)[C@H]3[C@H](C)O4)c12` (stereo partly drawn) [Example 14]: the IC50 with GP2d cells was 1.6 nM.
